Experimental data reported in US12648928B2, “Intervention strategy for prevention or treatment of diabetes mellitus, autoimmune disease, inflammatory disease or cardiovascular disease” (ACADEMISCH MEDISCH CENTRUM, priority 2020, dated 2026).
Entries after “also recorded” stand apart in the source; their conditions may differ.

Experiments:
INS1E cells = test: In vitro stimulation of pancreatic beta cells: gene expression and insulin secretion; format: cell-based, rat
Protocol: INS1E cells (rat pancreatic beta-cell line) were maintained in complete RPMI1640 supplemented with 5% Fetal Bovine Serum, 2 mM L-glutamine, 5 μM beta-mercaptoethanol, 1 mM sodium pyruvate, 10 mM HEPES, 100 units/ml of penicillin and 100 μg/ml streptomycin. INSIE cells were seeded in 48-well plates at a density of 1×10^5 cells per well and left resting for one day. Subsequently, medium was replaced with 0.5 ml/well of INS1E complete RPMI1640 medium containing vehicle or the metabolites: 6-BT (1/10/25 μM), LysoPC(20:0) (5/10/50 μM), or MA-GPC (10/50/100 μM). After 24 hours, cells and supernatant were harvested for further analysis (gene expression and insulin secretion, respectively) and stored at −80° C. Cells were lysed in Tripure isolation reagent (Roche) before storage.
For glucose-stimulated insulin secretion (GSIS) assay, cells were preincubated in a Krebs-Ringer bicarbonate buffer (KRB) [115 mM NaCl, 5 mM KCl, 2.56 mM CaCl2), 1 mM MgCl2, 10 mM NaHCO3, 15 mM HEPES, and 0.3% of BSA (pH 7.4)] for 30 min at 37° C., following by stimulation with 1 mM glucose in KRB for 1 hour (0.5 ml/well) and stimulation with 22 mM glucose in KRB for another hour (0.5 ml/well) at 37° C. Supernatant was recovered after treatment with 1 mM glucose (Sigma-Aldrich) and 22 mM glucose and cells stored at −80° C. GSIS was performed on beta cells after treatment for 24-hour treatment with 10 μM 6-BT.
(§1) Specific ELISAs (R&D Systems) were utilized to measure the concentration of TNFα, IFNβ, and IFNγ in cell supernatant of murine monocytes, macrophages ad T cells, respectively, according to the manufacturer's instructions. The concentration of insulin after 24-hour treatment with metabolites or after GSIS were determined using Rat insulin ELISA (Mercodia) according to the manufacturer's instructions. GSIS was calculated by subtracting the concentration of insulin at 1 mM glucose to the insulin rate at 22 mM glucose.
(§2) Total RNA was extracted from Tripure isolation reagent cell lysates. RNA was converted to cDNA by with iScript kit (BioRad). Quantitative polymerase chain reaction (qPCR) was performed using SYBR Green-SensiMix (Bioline) on a CFX384 Touch Real-Time PCR Detection System (BioRad). The delta delta Ct method was used to calculate gene expression as fold-change compared to control (unstimulated conditions).
Given the positive association between plasma 6-BT levels and C-peptide concentrations (found in the clinical study), it was then questioned whether 6-BT can exert a direct effect on beta cells. Indeed, it is seen here that 6-BT induces, in IS1E beta cells, the gene expression of the transcription factors PDX1 and MAFA, which are important for beta cell maturation and functionality.

human monocytes = test: In vitro stimulation of human monocytes; format: cell-based; conditions: LPS stimulation 24 hours, 100 μM (FIG. 10)
Protocol: The mononuclear cell fraction was isolated from the blood of healthy volunteers (Sanquin Bloodbank, Amsterdam, The Netherlands) by density centrifugation using Lymphoprep™ (Axis-Shield) and isolated using human CD14 magnetic beads and MACS® cell separation columns (Miltenyi Biotec) according to the manufacturer's instructions. Isolated primary human monocytes were counted and seeded at 1>10^6 cells/mL in 24-well plates with 1 ml medium supplemented with 10% fetal bovine serum, 100 U/ml penicillin, 100 μg/ml streptomycin, 2 mM L-glutamine. After seeding, cells were stimulated with 10 ng/ml LPS or 25 mM D-glucose (both Sigma-Aldrich) for 24 hours with/without 100 μM 6-BT. Afterwards, cells were lysed with Tripure isolation reagent (Roche) and stored at −80° C. until RNA isolation.
as §2

murine CD4+ T cells = test: In vitro CD4+ T cell activation assay (anti-CD3/anti-CD28); format: cell-based
Protocol: Primary CD4+ T cells were freshly isolated by negative selection from spleens of C57/B16 mice (N=3 per experiment). Briefly, spleens were smashed in a culture dish and passed twice through a strainer (70 μm and 40 μm, respectively) to obtain a single-cell suspension.
Using the negative selection (CD4+ T Cell Isolation kit, Miltenyi Biotec, #130-10-454). Non-CD4 T cells were depleted by retaining them in LS magnetizing column (Miltenyi Biotec).
Isolated CD4 T cells were cultured in 96-well plates (1×10^5 per well) in RPMI1640 medium supplemented with 10% fetal bovine serum, 100 U/ml penicillin, 100 μg/ml streptomycin, 2 mM L-glutamine. Treatment with the metabolites 6-BT (1/10 μM), LysoPC(20:0) (10/50 μM) or MA-GPC (10/50/100 μM) and activation with 2.5 μg/ml soluble anti-CD3 (145-2C11, eBioscience) and 1 μg/ml soluble anti-CD28 (37.51, eBioscience) antibodies started immediately after seeding in 200 i/well complete RPMI1640 media for a 24-hour period, at the end of which supernatant was harvested and stored at −80° C.
as §1
Particularly in the context of autoimmune diabetes, the activity of T cells is driving disease onset and progression. […] To mimic antigen presentation, murine CD4 T cells (isolated from spleens; Uchimura T., The Innate Immune Sensor NLRC3 Acts as a Rheostat that Fine-Tunes T Cell Responses in Infection and Autoimmunity. Immunity 2019) were activated by monoclonal antibodies against CD3 and CD28 (2.5 and 1 μg/ml, respectively).

## N[C@@H](Cc1c[nH]c2cc(Br)ccc12)C(=O)O [6-BT, 6-bromotryptophan]
INS1E cells; INS1e beta-cells treated for 24 hours, beta cell differentiation markers (FIGS. 12 and 13)
  pancreatic beta-cell function: enhances pancreatic beta-cell function
INS1E cells; beta cells (FIG. 17)
  gene expression of the transcription factor MAFA: induces
  gene expression of the transcription factor PDX1: induces
INS1E cells; beta cells, 24-hour treatment (FIG. 17)
  insulin secretion at steady-state: promotes insulin secretion
INS1E cells; difference between insulin release at 1 mM and 22 mM glucose, 24-hour treatment with 10 μM
  glucose-stimulated insulin secretion: promotes insulin secretion
Human monocytes
  cytokine production by human monocytes: reduces cytokine production
Murine CD4+ T cells; CD4 T cells from spleens, anti-CD3 2.5 μg/ml and anti-CD28 1 μg/ml (FIGS. 16, 20)
  production of the Th1 cytokine IFNgamma: significantly reduced; also recorded: exerted inhibitory effect
Murine CD4+ T cells; anti-CD3 & anti-CD28 mAbs, 24 hours (FIG. 11)
  Th1 responses in CD4 T cells: dampen Th1 responses
